Here are results for three molecules from patent publication US7501281B2, “Compositions, methods and kits related to thrombin, Notch signaling and stamatogenesis and growth of stem cells” (Maine Medical Center Research Institute, priority 2003, dated 2009).

Assay [1] has as its system secondary NCSC populations. In words: Dosage sensitivity of secondary NCSC to instructive differentiation factors BMP2 and sDl1. In kind it is cell-based. To be noted: clones expanded 18 days; 5 μM TRAP, sJ1 or thrombin. On the procedure: Secondary NCSC population were generated from founder NCSC clones after 13 days of growth in Morrison media supplemented either with 7.5 nM sJ1 (▴-▴), 5 μg/ml α-thrombin (▾-▾), 5 μM TRAP (♦-♦) or no additive (control; ▪-▪) and compared to freshly isolated populations of NCSC (●-●). […] Clonogenic differentiation assays of secondary P75^+/P0^− NCSC populations were assayed in Morrison media as a function of the concentration of the neurogenic differentiation factor, BMP2, and the generation of Neuron-only clones was assessed 14 days after the addition of BMP2. […] Clonogenic differentiation assays of secondary P75^+/P0^− NCSC were preformed in Morrison media supplemented with increasing concentrations of the gliogenic differentiation factor, sDl1 and the generation of Glial-only clones was assessed 14 days after the addition of sDl1. […]
It is well established that quantitative changes in the dosage sensitivity of NCSC populations occur in vitro and in vivo during NCSC self-renewal (Kubu et al., 2002, Dev. Biol. 244:199-214; White et al., 1999, Development 126:4351-4363; White et al., 2001, Neuron 29:57-71). […] The dosage sensitivity of secondary NCSC populations to both BMP2 and sDl1 was evaluated using the clonogenic differentiation assay to quantitate the production of neuron-only clones (BMP2) and glial-only clones (sDl1) after day 18.

A further assay relates to NCSC populations. In words: GFAP immunoreactivity as onset of glial-specific clonogenic differentiation. In kind it is cell-based, murine. On the procedure: FIG. 12A depicts an RT-PCR analysis of FGF1.A mRNA expression. Briefly, populations of murine NCSC were treated for 48 hours in Morrison media supplemented with either 7.5 nM sJ1, 5.0 nM sDl1, 10 μg/ml of α-thrombin or 5 μg/ml TRAP, and the steady-state levels of the FGF1.A mRNA were measured using RT-PCR as described elsewhere herein. […] Clonogenic differentiation assays of murine NCSC populations were assessed by maintaining the cells in Morrison media supplemented with increasing concentrations of either sJ1 or sDl1. […] Clonogenic differentiation assays of NCSC populations was assessed by maintaining the cells in Morrison media supplemented with either 7.5 nM sJ1 (▪-▪) or 5 nM sDl1 (▴-▴). The onset of gliogenic differentiation was determined by GFAP immunohistochemistry. […]
Since sJ1 enabled the retention of NCSC neurogenic potential over a 7 day period of exposure (Table 1), glial fibrillary acidic protein (GFAP) immunoreactivity was utilized as a measure of the onset of glial-specific clonogenic differentiation (Morrison et al., 1999, Cell 96:737-749; Stemple et al., 1992, Cell 71:973-985). […] As previously reported (Morrison et al., 2000, Cell 101:499-510), after 48 hours of exposure to sDl1, GFAP immunoreactive cells were detected in NCSC populations (FIG. 12C). […]

The subject of assay [2] is HEY and Deltex transcripts in NCSC populations. Kind of assay: RT-PCR analyses of Notch down-stream effectors. In kind it is cell-based. From the text:
It is also interesting that sJ1 and sDl1 induce distinctive phenotypic outcomes. Whereas sJ1:Notch interactions enable stamatogenesis, sDl1:Notch associations lead to an immediate loss of neurogenic potential. […] Likewise, Delta1, but not Jagged1, is able to promote the in vitro development of human cord blood-derived progenitor cells with a T cell/natural killer cell phenotype (Jaleco et al., 2001, J. Exp. Med. 194:991-1002), and sJ1 is able to promote the clonal expansion of hematopoietic stem cells in vitro (Vas et al., 2004, J. Leukoc. Biol., in press). […] Thus, it appears that sJ1 and sDl1 induce different cell fate decisions in NCSC populations. […] Thus, without wishing to be bound by any particular theory, the levels of Notch signaling may be paramount in regulating the undifferentiated expansion of multipotential neural stem cells, and thrombin and/or sJ1, may be one of the key elements in this process that enable stamatogenesis to occur.

Consider Thrombin, for which the “shift in sensitivity to instructive differentiation signals” value in assay [1] is “not observed”.
“sJ1: Soluble Jagged1, amino acid residues from about 1 to 1067 (SEQ ID NO:3) of full-length Jagged1”: the “percentage of the colony expressing the glial-specific protein GFAP” value in the assay on NCSC populations (day 7) came out at 23±5%. Further, the “shift in sensitivity to instructive differentiation signals” value in assay [1] is recorded as “not observed”. The “steady-state levels of HEY and Deltex transcripts” value in assay [2] is given as “suppression”.

B1: sDl1: soluble non-transmembrane form of the Notch ligand Delta1 (protein)
chain: QVWSSGVFELKLQEFVNKKGLLGNRNCCRGGAGPPPCACRTFFRVCLKHYQASVSPEPPCTYGSAVTPVLGVDSFSLPDGGGADSAFSNPIRFPFGFTWPGTFSLIIEALHTDSPDDLATENPERLISRLATQRHLTVGEEWSQDLHSSGRTDLKYSYRFVCDEHYYGEGCSVFCRPRDDAFGHFTCGERGEKVCNPGWKGPYCTEPICLPGCDEQHGFCDKPGECKCRVGWQGRYCDECIRYPGCLHGTCQQPWQCNCQEGWGGLFCNQDLNYCTHHKPCKNGATCTNTGQGSYTCSCRPGYTGATCELGIDECDPSPCKNGGSCTDLENSYSCTCPPGFYGKICELSAMTCADGPCFNGGRCSDSPDGGYSCRCPVGYSGFNCEKKIDYCSSSPCSNGAKCVDLGDAYLCRCQAGFSGRHCDDNVDDCASSPCANGGTCRDGVNDFSCTCPPGYTGRNCSAPVSRCEHAPCHNGATCHERGHRYVCECARGYGGPNCQFLLPELPPGPAVVDLTEKLEGQGGPFPW
modifications: left off: small tags and cut ends
notes: soluble non-transmembrane form of the Notch ligand Delta1
As to B1, the “time of exposure at which GFAP immunoreactive cells were detected” value with NCSC populations is 48 h. Moreover, in assay [2], the “steady-state levels of HEY and Deltex transcripts” value was “not”.
